Measured values from US20120172385A1, “ORTHO SUBSTITUTED PYRIMIDINE COMPOUNDS AS JAK INHIBITORS” (priority 2009, published 2012).
One block for each compound: values may come before it.

Legend:
[1] = tested on: organ transplantation; settings: Changelian et al., 2003; cited from earlier work
[2] = molecular target: T1, JAK2 (Homo sapiens, UniProt O60674); experiment: Kinobeads assay, JAK2 (dot blot detection); assay type: binding; settings: mixed Molt4/Ramos lysate
T1 construct: endogenous in cells; host or cells: Molt4 (ATCC CRL-1582) and Ramos (ATCC CRL-1596) cell lysate, mixed 1:2
T1 sequence (O60674 whole entry): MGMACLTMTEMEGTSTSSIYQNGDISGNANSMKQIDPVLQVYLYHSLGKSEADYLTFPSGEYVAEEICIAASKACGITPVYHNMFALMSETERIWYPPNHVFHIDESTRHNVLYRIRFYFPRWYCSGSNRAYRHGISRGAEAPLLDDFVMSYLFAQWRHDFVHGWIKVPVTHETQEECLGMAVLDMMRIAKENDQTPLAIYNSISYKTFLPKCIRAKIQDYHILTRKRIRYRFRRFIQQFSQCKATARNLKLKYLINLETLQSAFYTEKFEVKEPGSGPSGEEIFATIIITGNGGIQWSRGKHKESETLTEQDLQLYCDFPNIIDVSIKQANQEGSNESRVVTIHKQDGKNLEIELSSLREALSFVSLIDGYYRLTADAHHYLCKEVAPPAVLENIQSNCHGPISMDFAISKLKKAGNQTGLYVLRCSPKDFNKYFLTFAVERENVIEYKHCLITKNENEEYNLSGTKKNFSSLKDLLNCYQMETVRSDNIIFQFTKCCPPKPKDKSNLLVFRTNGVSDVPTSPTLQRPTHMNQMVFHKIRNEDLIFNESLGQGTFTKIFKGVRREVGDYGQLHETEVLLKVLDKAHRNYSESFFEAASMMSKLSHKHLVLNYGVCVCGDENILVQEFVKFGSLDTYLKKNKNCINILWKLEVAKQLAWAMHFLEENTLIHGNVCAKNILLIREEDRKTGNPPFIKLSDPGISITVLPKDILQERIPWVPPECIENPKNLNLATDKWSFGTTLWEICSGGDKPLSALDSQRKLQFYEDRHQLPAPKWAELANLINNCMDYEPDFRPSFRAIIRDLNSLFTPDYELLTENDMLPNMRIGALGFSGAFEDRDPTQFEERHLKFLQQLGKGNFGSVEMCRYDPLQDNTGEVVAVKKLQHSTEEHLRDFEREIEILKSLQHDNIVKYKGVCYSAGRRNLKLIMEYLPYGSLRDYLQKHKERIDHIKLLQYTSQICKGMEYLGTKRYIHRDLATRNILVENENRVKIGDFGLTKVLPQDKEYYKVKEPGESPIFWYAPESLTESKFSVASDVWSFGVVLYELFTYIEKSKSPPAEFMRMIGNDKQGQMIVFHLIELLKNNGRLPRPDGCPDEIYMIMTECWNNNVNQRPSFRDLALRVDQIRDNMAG
Procedure: (§1) The compounds of the present invention as described in the previous examples were tested in a Kinobeads™ assay as described for ZAP-70 (WO-A 2007/137867). Briefly, test compounds (at various concentrations) and the affinity matrix with the immobilized aminopyrido-pyrimidine ligand 24 were added to cell lysate aliquots and allowed to bind to the proteins in the lysate sample. After the incubation time the beads with captured proteins were separated from the lysate. Bound proteins were then eluted and the presence of JAK2 and JAK3 was detected and quantified using specific antibodies in a dot blot procedure and the Odyssey infrared detection system. Dose response curves for individual kinases were generated and IC50 values calculated. Kinobeads™ assays for ZAP-70 (WO-A 2007/137867) and for kinase selectivity profiling (WO-A 2006/134056) have been previously described.
(§2) The affinity matrix was washed two times with 15 mL of 1×DP buffer containing 0.2% NP40 (IGEPAL® CA-630, Sigma, #I3021) and then resuspended in 1×DP buffer containing 0.2% NP40 (3% beads slurry).
(§3) 5×DP buffer: 250 mM Tris-HCl pH 7.4, 25% Glycerol, 7.5 mM MgCl2, 750 mM NaCl, 5 mM Na3VO4; filter the 5×DP buffer through a 0.22 μm filter and store in aliquots at −80° C. The 5×DP buffer is diluted with H2O to 1×DP buffer containing 1 mM DTT and 25 mM NaF.
(§4) Stock solutions of test compounds were prepared in DMSO. In a 96 well plate 30 μL solution of diluted test compounds at 5 mM in DMSO were prepared. Starting with this solution a 1:3 dilution series (9 steps) was prepared. For control experiments (no test compound) a buffer containing 2% DMSO was used.
(§5) Molt4 cells (ATCC catalogue number CRL-1582) and Ramos cells (ATCC catalogue number CRL-1596) were grown in 1 L Spinner flasks (Integra Biosciences, #182101) in suspension in RPMI 1640 medium (Invitrogen, #21875-034) supplemented with 10% Fetal Bovine Serum (Invitrogen) at a density between 0.15×10^6 and 1.2×10^6 cells/mL. Cells were harvested by centrifugation, washed once with 1×PBS buffer (Invitrogen, #14190-094) and cell pellets were frozen in liquid nitrogen and subsequently stored at −80° C. Cells were homogenized in a Potter S homogenizer in lysis buffer: 50 mM Tris-HCl, 0.8% NP40, 5% glycerol, 150 mM NaCl, 1.5 mM MgCl2, 25 mM NaF, 1 mM sodium vanadate, 1 mM DTT, pH 7.5. One complete EDTA-free tablet (protease inhibitor cocktail, Roche Diagnostics, 1873580) per 25 mL buffer was added. The material was dounced 10 times using a mechanized POTTER S, transferred to 50 mL falcon tubes, incubated for 30 minutes on ice and spun down for 10 minutes at 20,000 g at 4° C. (10,000 rpm in Sorvall SLA600, precooled). The supernatant was transferred to an ultracentrifuge (UZ)-polycarbonate tube (Beckmann, 355654) and spun for 1 hour at 100.000 g at 4° C. (33.500 rpm in Ti50.2, precooled). The supernatant was transferred again to a fresh 50 mL falcon tube, the protein concentration was determined by a Bradford assay (BioRad) and samples containing 50 mg of protein per aliquot were prepared. The samples were immediately used for experiments or frozen in liquid nitrogen and stored frozen at −80° C.
(§6) Cell lysate (approximately 50 mg protein per plate) was thawed in a water bath at room temperature and then stored on ice. To the thawed cell lysate 1×DP 0.8% NP40 buffer containing protease inhibitors (1 tablet for 25 mL buffer; EDTA-free protease inhibitor cocktail; Roche Diagnostics 1873580) was added in order to reach a final protein concentration of 10 mg/mL total protein. The diluted cell lysate was stored on ice. Mixed Molt4/Ramos lysate was prepared by combining one volume of Molt4 lysate and two volumes of Ramos lysate (ratio 1:2).
(§7) To a 96 well filter plate (Multiscreen HTS, BV Filter Plates, Millipore #MSBVN1250) were added per well: 100 μL affinity matrix (3% beads slurry), 3 μL of compound solution, and 50 μL of diluted lysate. […]

[3] = molecular target: T2, JAK3 (Homo sapiens, UniProt P52333); experiment: Kinobeads assay, JAK3 (dot blot detection); assay type: binding; settings: mixed Molt4/Ramos lysate
T2 construct: endogenous in cells; host or cells: Molt4 (ATCC CRL-1582) and Ramos (ATCC CRL-1596) cell lysate, mixed 1:2
T2 sequence (P52333 1-1124): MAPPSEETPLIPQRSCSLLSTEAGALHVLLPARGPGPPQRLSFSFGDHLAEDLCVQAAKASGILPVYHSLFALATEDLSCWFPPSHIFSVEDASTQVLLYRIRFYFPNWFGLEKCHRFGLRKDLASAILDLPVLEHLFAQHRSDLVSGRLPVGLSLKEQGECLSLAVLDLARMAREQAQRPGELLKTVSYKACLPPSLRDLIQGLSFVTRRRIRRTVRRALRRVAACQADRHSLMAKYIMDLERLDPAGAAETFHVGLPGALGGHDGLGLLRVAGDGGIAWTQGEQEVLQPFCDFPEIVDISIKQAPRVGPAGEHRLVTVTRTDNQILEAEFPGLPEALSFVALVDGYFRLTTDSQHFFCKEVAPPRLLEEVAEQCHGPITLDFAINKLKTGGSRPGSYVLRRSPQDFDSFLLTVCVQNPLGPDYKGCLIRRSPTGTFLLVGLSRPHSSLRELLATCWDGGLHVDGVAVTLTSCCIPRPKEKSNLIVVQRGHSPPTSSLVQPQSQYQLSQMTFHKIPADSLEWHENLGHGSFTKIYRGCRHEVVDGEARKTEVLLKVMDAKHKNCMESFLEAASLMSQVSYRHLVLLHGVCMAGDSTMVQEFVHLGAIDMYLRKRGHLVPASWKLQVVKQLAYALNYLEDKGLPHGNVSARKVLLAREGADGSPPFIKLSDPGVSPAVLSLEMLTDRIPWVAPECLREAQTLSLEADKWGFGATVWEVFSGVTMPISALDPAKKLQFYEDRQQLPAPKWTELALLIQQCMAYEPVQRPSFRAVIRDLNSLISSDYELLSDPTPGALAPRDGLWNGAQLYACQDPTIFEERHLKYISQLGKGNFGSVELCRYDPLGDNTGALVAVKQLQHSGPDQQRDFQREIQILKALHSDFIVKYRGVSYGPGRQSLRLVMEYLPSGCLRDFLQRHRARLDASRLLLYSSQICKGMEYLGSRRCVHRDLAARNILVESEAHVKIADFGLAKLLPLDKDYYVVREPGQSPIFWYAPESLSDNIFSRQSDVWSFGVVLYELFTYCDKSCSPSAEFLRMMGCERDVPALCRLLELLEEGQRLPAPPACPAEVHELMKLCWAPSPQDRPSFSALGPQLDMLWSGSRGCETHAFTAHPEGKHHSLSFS
Procedure: as §1, §2, §3, §4, §5, §6, §7

[4] = tested on: GVHD; settings: reviewed in Cetkovic-Cvrlje and Ucken, 2004; cited from earlier work
[5] = tested on: spontaneous autoimmune diabetes; settings: NOD mouse model of type I diabetes; cited from earlier work

Structure (SMILES): C[C@@H]1CCN(C(=O)CC#N)C[C@@H]1N(C)c1ncnc2[nH]ccc12 [CP-690,550]
efficacy in an animal model of organ transplantation [1]: show efficacy

Structure (SMILES): COc1ccc(Nc2nc(Nc3cc(-n4cnnc4)ccc3OC)ncc2Cl)c(NS(C)(=O)=O)c1 [Example 11, N-(2-(5-chloro-2-(2-methoxy-5-(4H-1,2,4-triazol-4-yl)phenylamino)pyrimidin-4-ylamino)-5-methoxyphenyl)methanesulfonamide]
IC50 [2]: 1 to 10 µM | IC50 [3]: < 0.1 µM

Structure (SMILES): COc1ccc(Nc2nc(Nc3cc(-n4cnnn4)ccc3C)ncc2Cl)c(NS(C)(=O)=O)c1 [Example 12, N-(2-(5-chloro-2-(2-methyl-5-(1H-tetrazol-1-yl)phenylamino)pyrimidin-4-ylamino)-5-methoxyphenyl)methanesulfonamide]
IC50 [2]: 1 to 10 µM | IC50 [3]: < 0.1 µM

Structure (SMILES): COc1ccc(Nc2nc(Nc3cc(-n4cnnc4)ccc3C)ncc2Cl)c(NS(C)(=O)=O)c1 [Example 13, N-(2-(5-chloro-2-(2-methyl-5-(4H-1,2,4-triazol-4-yl)phenylamino)pyrimidin-4-ylamino)-5-methoxyphenyl)methanesulfonamide]
IC50 [2]: 0.1 to 1 µM | IC50 [3]: < 0.1 µM

Structure (SMILES): CNC(=O)c1ccc(OC)c(Nc2ncc(Cl)c(Nc3ccccc3NS(C)(=O)=O)n2)c1 [Example 17, 3-(5-chloro-4-(2-(methylsulfonamido)phenylamino)pyrimidin-2-ylamino)-4-methoxy-N-methylbenzamide]
IC50 [2]: ≥ 10 µM | IC50 [3]: < 0.1 µM

Structure (SMILES): COc1ccc(C(=O)N2CCCCC2)cc1Nc1ncc(Cl)c(Nc2ccccc2NS(C)(=O)=O)n1 [Example 19, N-(2-(5-chloro-2-(2-methoxy-5-(piperidine-1-carbonyl)phenylamino)pyrimidin-4-ylamino)phenyl)methanesulfonamide]
IC50 [2]: ≥ 10 µM | IC50 [3]: 0.1 to 1 µM

Structure (SMILES): CCNC(=O)c1ccc(OC)c(Nc2ncc(Cl)c(Nc3ccccc3NS(C)(=O)=O)n2)c1 [Example 21]
IC50 [3]: < 0.1 µM

Structure (SMILES): Cc1ccc(C(=O)N(C)C)cc1Nc1ncc(Cl)c(Nc2ccccc2NS(C)(=O)=O)n1 [Example 24, 3-(5-chloro-4-(2-(methylsulfonamido)phenylamino)pyrimidin-2-ylamino)-N,N,4-trimethylbenzamide]
IC50 [2]: ≥ 10 µM | IC50 [3]: 0.1 to 1 µM

Structure (SMILES): CCS(=O)(=O)Nc1ccccc1Nc1nc(Nc2cc(C#N)ccc2OC)ncc1Cl [Example 25, N-(2-(5-chloro-2-(5-cyano-2-methoxyphenylamino)pyrimidin-4-ylamino)phenyl)ethanesulfonamide]
IC50 [2]: ≥ 10 µM | IC50 [3]: 0.1 to 1 µM

Structure (SMILES): COc1cc2ncnc(Nc3ccc(O)cc3)c2cc1OC [JANEX-1]
severity of GVHD [4]: attenuate the severity of GVHD | prevention of spontaneous autoimmune diabetes development [5]: prevent spontaneous autoimmune diabetes development

Next, values leading:

IC50 [2]: 1 to 10 µM | IC50 [3]: 0.1 to 1 µM
Structure (SMILES): Cc1ccc(C#N)cc1Nc1ncc(Cl)c(Nc2ccccc2NS(C)(=O)=O)n1 [Example 14, N-(2-(5-chloro-2-(5-cyano-2-methylphenylamino)pyrimidin-4-ylamino)phenyl)methanesulfonamide]

IC50 [2]: ≥ 10 µM | IC50 [3]: 0.1 to 1 µM
Structure (SMILES): CNC(=O)c1ccc(Cl)c(Nc2ncc(Cl)c(Nc3ccccc3NS(C)(=O)=O)n2)c1 [Example 16, 4-Chloro-3-(5-chloro-4-(2-(methylsulfonamido)phenylamino)pyrimidin-2-ylamino)-N-methylbenzamide]

IC50 [3]: < 0.1 µM
Structure (SMILES): COc1ccc(C(=O)NC(C)C)cc1Nc1ncc(Cl)c(Nc2ccccc2NS(C)(=O)=O)n1 [Example 18]

IC50 [3]: < 0.1 µM
Structure (SMILES): COc1ccc(C(=O)NC2CC2)cc1Nc1ncc(Cl)c(Nc2ccccc2NS(C)(=O)=O)n1 [Example 20]

IC50 [2]: ≥ 10 µM | IC50 [3]: 1 to 10 µM
Structure (SMILES): Cc1ccc(C#N)cc1Nc1ncc(Cl)c(Nc2cccc(F)c2NS(C)(=O)=O)n1 [Example 23, N-(2-(5-chloro-2-(5-cyano-2-methylphenylamino)pyrimidin-4-ylamino)-6-fluorophenyl)methanesulfonamide]

IC50 [2]: ≥ 10 µM | IC50 [3]: 0.1 to 1 µM
Structure (SMILES): CCNC(=O)c1ccc(OC)c(Nc2ncc(Cl)c(Nc3ccccc3NS(=O)(=O)CC)n2)c1 [Example 26, 3-(5-chloro-4-(2-(ethylsulfonamido)phenylamino)pyrimidin-2-ylamino)-N-ethyl-4-methoxybenzamide]

IC50 [2]: ≥ 10 µM | IC50 [3]: 0.1 to 1 µM
Structure (SMILES): CCS(=O)(=O)Nc1ccccc1Nc1nc(Nc2cc(C(=O)NC)ccc2OC)ncc1Cl [Example 27, 3-(5-chloro-4-(2-(ethylsulfonamido)phenylamino)pyrimidin-2-ylamino)-4-methoxy-N-methylbenzamide]
